Results from patent publication US20200071326A1, “TAM KINASE INHIBITORS” (Syros Pharmaceuticals, Inc., priority 2017, published 2020).
Counter-ions that a name gives are not always drawn.

Assays:
TYRO3 = biological target: T1, TYRO3 (Homo sapiens, UniProt Q06418); assay: IMAP fluorescence polarization kinase assay, TYRO3; type: biochemical; settings: ATP 54.0 μM, enzyme 2.5 nM, 60 minutes, read-out: TYRO3 inhibitory constant (Ki)
T1 sequence (Q06418 41-890): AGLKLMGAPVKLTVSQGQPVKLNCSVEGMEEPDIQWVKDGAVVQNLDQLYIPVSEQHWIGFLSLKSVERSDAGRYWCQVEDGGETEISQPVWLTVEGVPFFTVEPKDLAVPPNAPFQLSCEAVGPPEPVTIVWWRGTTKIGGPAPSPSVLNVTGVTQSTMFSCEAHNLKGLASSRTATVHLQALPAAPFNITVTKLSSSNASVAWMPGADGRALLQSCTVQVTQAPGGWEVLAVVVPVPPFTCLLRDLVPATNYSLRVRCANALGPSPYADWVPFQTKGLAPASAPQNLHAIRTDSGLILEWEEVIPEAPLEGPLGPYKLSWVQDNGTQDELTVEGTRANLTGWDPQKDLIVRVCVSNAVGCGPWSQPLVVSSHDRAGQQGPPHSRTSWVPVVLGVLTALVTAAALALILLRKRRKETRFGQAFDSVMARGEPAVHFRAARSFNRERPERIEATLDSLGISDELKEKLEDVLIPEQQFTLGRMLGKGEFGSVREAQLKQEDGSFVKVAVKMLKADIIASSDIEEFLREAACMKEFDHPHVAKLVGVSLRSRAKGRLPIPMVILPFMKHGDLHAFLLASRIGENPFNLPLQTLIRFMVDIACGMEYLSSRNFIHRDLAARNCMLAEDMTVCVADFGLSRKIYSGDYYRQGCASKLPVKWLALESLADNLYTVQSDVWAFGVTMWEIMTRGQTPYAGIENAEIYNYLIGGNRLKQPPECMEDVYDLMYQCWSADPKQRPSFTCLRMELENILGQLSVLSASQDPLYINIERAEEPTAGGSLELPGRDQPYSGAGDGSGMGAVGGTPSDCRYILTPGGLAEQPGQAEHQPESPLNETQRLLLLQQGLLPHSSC
Description: (§1) Activities of compounds against each of TYRO3, AXL, and MERTK as well as against FLT3, were determined using an immobilized metal ion affinity-based fluorescence polarization (“IMAP”) assay. A fluorescently-labeled substrate peptide was phosphorylated in the kinase reaction, after which a binding solution containing large trivalent metal-based nanoparticles was added and the phosphorylated substrate binds to these beads. This reduces the rotational speed of the substrate which is then detected using fluorescence polarization as a read-out.
(§2) The substrates used for each enzyme are as follows: AXL: 5F1-KKKKEEIYFFFG-NH2(SEQ ID NO:1); FLT3: 5F1-KKKKEEIYFFF-NH2 (SEQ ID NO:2); MERTK: 5F1-EFPIYDFLPAKKK-NH2 (SEQ ID NO:3); and TYRO3: 5F1-EFPIYDFLPAKKK-NH2 (SEQ ID NO:4).
(§3) This assay was performed in a 384-well, polystyrene microplate in a final volume of 8 μl. Substrate (final concentration=400 nM), ATP (final concentrations=24.7μM for AXL; 2.74 μM for FLT3; 2.69 μM for MERTK; and 54.0 μM for TYRO3), compounds and enzyme (final concentrations=2.5 nM for AXL, FLT3 and TYRO3; 1.5 nM for MERTK) were pipetted in this order into the appropriate reaction buffer (AXL: 50 mM HEPES, pH 8.0, 1 mM DTT, 10 mM MgCl2, 0.01% BRU35, 0.01% Triton X-100; FLT3: 50 mM HEPES, pH 8.0, 1 mM DTT, 10 mM MgCl2, 0.01% Triton X-100, 0.01% NP40; MERTK/TYRO3: 50 mM HEPES, pH 8.0, 1 mM DTT, 10 mM MgCl2, 0.01% Triton X-100) and incubated at room temperature for varying times (AXL, FLT3 and MERTK: 240 minutes; TYRO3: 60 minutes). IMAP binding solution was then dispensed, the plate incubated for 60 minutes at room temperature and the fluorescence polarization measured. Data were analyzed using XLfit.

MERTK = biological target: T2, MERTK (Homo sapiens, UniProt Q12866); assay: IMAP fluorescence polarization kinase assay, MERTK; type: biochemical; settings: ATP 2.69 μM, enzyme 1.5 nM, 240 minutes, read-out: MERTK inhibitory constant (Ki)
T2 sequence (Q12866 21-999): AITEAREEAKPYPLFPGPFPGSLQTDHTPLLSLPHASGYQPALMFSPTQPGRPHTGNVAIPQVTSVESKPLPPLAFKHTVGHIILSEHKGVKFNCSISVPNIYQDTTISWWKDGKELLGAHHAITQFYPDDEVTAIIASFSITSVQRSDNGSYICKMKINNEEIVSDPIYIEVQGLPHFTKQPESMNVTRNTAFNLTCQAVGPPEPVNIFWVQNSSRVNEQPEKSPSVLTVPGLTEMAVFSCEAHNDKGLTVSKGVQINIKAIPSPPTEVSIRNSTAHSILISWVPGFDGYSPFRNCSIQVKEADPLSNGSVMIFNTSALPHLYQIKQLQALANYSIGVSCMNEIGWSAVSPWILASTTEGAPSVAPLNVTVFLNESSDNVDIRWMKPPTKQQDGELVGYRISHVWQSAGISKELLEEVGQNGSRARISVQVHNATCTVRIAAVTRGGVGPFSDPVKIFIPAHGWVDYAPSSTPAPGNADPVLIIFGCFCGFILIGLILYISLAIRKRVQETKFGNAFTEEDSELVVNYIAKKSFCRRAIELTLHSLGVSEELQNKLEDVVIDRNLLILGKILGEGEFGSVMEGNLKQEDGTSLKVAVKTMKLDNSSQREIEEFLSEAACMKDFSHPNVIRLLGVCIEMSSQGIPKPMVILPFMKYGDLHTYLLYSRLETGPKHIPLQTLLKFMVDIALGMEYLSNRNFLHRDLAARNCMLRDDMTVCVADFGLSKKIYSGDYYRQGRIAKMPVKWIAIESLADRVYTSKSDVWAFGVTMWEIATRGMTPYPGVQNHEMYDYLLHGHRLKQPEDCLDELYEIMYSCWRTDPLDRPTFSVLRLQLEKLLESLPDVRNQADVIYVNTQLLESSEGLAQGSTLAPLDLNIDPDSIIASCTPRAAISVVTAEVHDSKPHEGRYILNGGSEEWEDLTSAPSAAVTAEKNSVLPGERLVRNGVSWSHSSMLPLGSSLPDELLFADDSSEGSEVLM
Description: as §1, §2, §3

Row | Structure (SMILES) | Ki (TYRO3) [nM] | Ki (MERTK) [nM]
1 | C#Cc1cc2c(N[C@H]3CC[C@H](N)CC3)c(C(=O)Nc3ccc(F)cc3)cnc2[nH]1 [Compound 128, [4-1(4-aminocyclohexyl)amino]-2-ethynyl-N-(4-fluorophenyl)-1H-pyrrolo[2,3-b]pyridine-5-carboxamide] | 100 to 1000 | 100 to 1000
2 | CC(C)c1cc2c(N[C@H]3CC[C@H](N)CC3)c(C(=O)NCc3ccc(-n4ccnc4)cc3)cnc2[nH]1 [Compound 129] | < 100 | < 100
3 | CCCc1cc2c(N[C@H]3CC[C@H](N)CC3)c(-c3ccc(COC(C)C)cn3)cnc2[nH]1 [Compound 130] | < 100 | < 100
4 | CCCc1cc2c(N[C@H]3CC[C@H](N)CC3)c(-c3cc(N)ccn3)cnc2[nH]1 [Compound 131] | < 100 | 100 to 1000
5 | CCc1cc2c(N[C@H]3CC[C@H](N)CC3)c(C(=O)NC3CCN(c4ncccn4)CC3)cnc2[nH]1 [Compound 132] | < 100 | < 100
6 | CCCCCc1cc2c(N[C@H]3CC[C@H](N)CC3)c(C(=O)NCc3ccc(-n4ccnc4)cc3)cnc2[nH]1 [Compound 133] | < 100 | < 100
7 | CCC(C)c1cc2c(N[C@H]3CC[C@H](N)CC3)c(C(=O)Nc3ccc(F)cc3)cnc2[nH]1 (some centres unmarked) [Compound 134] | < 100 | < 100
8 | N[C@H]1CC[C@H](Nc2c(C(=O)Nc3ccc(F)cc3)cnc3[nH]c(C(F)(F)F)cc23)CC1 [Compound 135, 4-(((1r,4r)-4-aminocyclohexyl)amino)-N-(4-fluorophenyl)-2-(trifluoromethyl)-1H-pyrrolo[2,3-b]pyridine-5-carboxamide hydrochloride] | < 100 | < 100
9 | CCc1cc2c(N[C@H]3CC[C@H](N)CC3)c(C(=O)Nc3ccc(F)cc3)cnc2[nH]1 [Compound 136] | < 100 | < 100
10 | CCCC(O)c1cc2c(N[C@H]3CC[C@H](N)CC3)c(Br)cnc2[nH]1 (some centres unmarked) [Compound 137] | 100 to 1000 | 100 to 1000
11 | N[C@H]1CC[C@H](Nc2c(C(=O)Nc3ccc(F)cc3)cnc3[nH]c(C4CCC4)cc23)CC1 [Compound 138, 4-(((1r,4r)-4-aminocyclohexyl)amino)-2-cyclobutyl-N-(4-fluorophenyl)-1H-pyrrolo[2,3-b]pyridine-5-carboxamide hydrochloride] | < 100 | < 100
12 | CCCc1cc2c(N[C@H]3CC[C@H](N)CC3)c(C(=O)NC)cnc2[nH]1 [Compound 139] | < 100 | < 100
13 | CCCc1cc2c(N[C@H]3CC[C@H](N)CC3)c(C(=O)OC)cnc2[nH]1 [Compound 140] | < 100 | < 100
14 | CCCc1cc2c(N[C@H]3CC[C@H](N)CC3)c(C(=O)NC3CCN(c4ncccn4)CC3)cnc2[nH]1 [Compound 141] | < 100 | < 100
15 | CCCc1cc2c(N[C@H]3CC[C@H](N)CC3)c(Br)cnc2[nH]1 [Compound 142] | < 100 | < 100
16 | CC(O)c1cc2c(N[C@H]3CC[C@H](O)CC3)c(-c3ccc(CN4CCOCC4)cn3)cnc2[nH]1 (some centres unmarked) [Compound 143] | < 100 | < 100
17 | CCc1cc2c(N[C@H]3CC[C@H](O)CC3)c(-c3ccc(CN4CCOCC4)cn3)cnc2[nH]1 [Compound 144] | < 100 | < 100
18 | COC(C)c1cc2c(N[C@H]3CC[C@H](N)CC3)c(C(=O)Nc3ccc(F)cc3)cnc2[nH]1 (some centres unmarked) [Compound 145] | 100 to 1000 | 100 to 1000

Results, then the compound that gave them:

Row | Ki (TYRO3) [nM] | Ki (MERTK) [nM] | Structure (SMILES)
19 | < 100 | 100 to 1000 | CCC(OC)c1cc2c(N[C@H]3CC[C@H](N)CC3)c(C(=O)Nc3ccc(F)cc3)cnc2[nH]1 (some centres unmarked) [Compound 146]
20 | < 100 | 100 to 1000 | CCC(CC)c1cc2c(N[C@H]3CC[C@H](N)CC3)c(C(=O)Nc3ccc(F)cc3)cnc2[nH]1 [Compound 147]
21 | 100 to 1000 | 100 to 1000 | CC(O)c1cc2c(N[C@H]3CC[C@H](N)CC3)c(C(=O)Nc3ccc(F)cc3)cnc2[nH]1 (some centres unmarked) [Compound 148]
22 | < 100 | 100 to 1000 | CCC[C@H](C)c1cc2c(N[C@H]3CC[C@H](N)CC3)c(C(=O)Nc3ccc(F)cc3)cnc2[nH]1 [Compound 149]
23 | < 100 | < 100 | CCC[C@@H](C)c1cc2c(N[C@H]3CC[C@H](N)CC3)c(C(=O)Nc3ccc(F)cc3)cnc2[nH]1 [Compound 150]
24 | 100 to 1000 | 100 to 1000 | CCOC(C)c1cc2c(N[C@H]3CC[C@H](N)CC3)c(C(=O)Nc3ccc(F)cc3)cnc2[nH]1 (some centres unmarked) [Compound 152]
25 | < 100 | 1000 to 10000 | CCCC(OC)c1cc2c(N[C@H]3CC[C@H](N)CC3)c(C(=O)Nc3ccc(F)cc3)cnc2[nH]1 (some centres unmarked) [Compound 153]
26 | 100 to 1000 | 1000 to 10000 | CCCC(O)c1cc2c(N[C@H]3CC[C@H](N)CC3)c(C(=O)Nc3ccc(F)cc3)cnc2[nH]1 (some centres unmarked) [Compound 154]
27 | < 100 | 100 to 1000 | COCC(C)c1cc2c(N[C@H]3CC[C@H](N)CC3)c(C(=O)Nc3ccc(F)cc3)cnc2[nH]1 (some centres unmarked) [Compound 155]
28 | < 100 | < 100 | CC[C@H](C)c1cc2c(N[C@H]3CC[C@H](N)CC3)c(C(=O)Nc3ccc(F)cc3)cnc2[nH]1 [Compound 156]
29 | 1000 to 10000 | 1000 to 10000 | CCC(C)c1cc2c(N[C@H]3CC[C@H](O)CC3)c(C(=O)NC3CCN(c4ncccn4)CC3)cnc2[nH]1 (some centres unmarked) [Compound 157]
30 | < 100 | < 100 | CCC(C)c1cc2c(N[C@H]3CC[C@H](O)CC3)c(C(=O)NC3CCN(C4=NCCCN4)CC3)cnc2[nH]1 (some centres unmarked) [Compound 158]
31 | 1000 to 10000 | 1000 to 10000 | CCC(C)c1cc2c(N[C@H]3CC[C@H](O)CC3)c(-c3ccc(S(=O)(=O)N4CCOCC4)cn3)cnc2[nH]1 (some centres unmarked) [Compound 159]
